The supplement of paper PMC6965134
± gives the standard deviation of the averaged measurements.

Test: TIMS collisional cross section (CCS, N2) of the lipid ion; higher = larger ion cross section
Settings: ionization mode: positive, one isomer drawn

SMILES	TIMS collisional cross section (sample type: HeLa) [Å²]	TIMS collisional cross section (sample type: Liver) [Å²]	TIMS collisional cross section (sample type: plasma) [Å²]
CCCCCC/C=C\CCCCCCCC(=O)OC[C@H](COP(=O)(O)OCCN)OC(=O)CCCCCCC/C=C\CCCCCCC [PE 16:1_17:1@] (ion (formula + adduct): [C38H72NO8P+H] 1+)	268.3	–	–
CCCCC/C=C\C/C=C\CCCCCCCC(=O)O[C@H](COC(=O)CCCCCCCCCCCCCCCCCCC)COP(=O)(O)OCCN [PE 20:0@_18:2] (ion (formula + adduct): [C43H82NO8P+H] 1+)	–	286.3	–
CCCCC/C=C\C/C=C\C/C=C\C/C=C\CCCC(=O)O[C@@H](CO)COC(=O)CCCCCCCCCCCCCCCCCC [DG 19:0_20:4_0:0] (ion (formula + adduct): [C42H74O5+NH4] 1+)	–	274.3	–
CC/C=C\C/C=C\C/C=C\C/C=C\C/C=C\CCCC(=O)O[C@H](COC(=O)CCCCCCC/C=C\C/C=C\CCCCC)COP(=O)([O-])OCC[N+](C)(C)C [PC 18:2@_20:5] (ion (formula + adduct): [C46H78NO8P+H] 1+)	286.6	–	287
CCCCCCCCCCCCCCCC(=O)OC[C@@H](O)COP(=O)(O)OCCN [LPE 16:0_0:0] (ion (formula + adduct): [C21H44NO7P+H] 1+)	217.4	–	–
CCCCC/C=C\C/C=C\C/C=C\CCCCC(=O)OC[C@@H](COC(=O)CCCCCCCCCCCCC)OC(=O)CCCCCCC/C=C\C/C=C\CCCCC [TG 14:0_18:2_18:3] (ion (formula + adduct): [C53H92O6+NH4] 1+)	–	308.7	309.2
CCCCCCCCCCCCC/C=C/[C@@H](O)[C@H](CO[C@@H]1OC(CO)[C@@H](O[C@@H]2OC(CO)[C@H](O)[C@H](O)C2O)[C@H](O)C1O)NC(=O)CCCCCCCCCCCCCCC (stereo not given in full) [GlcCer d18:1_16:0@] (ion (formula + adduct): [C46H87NO13+H] 1+)	–	–	304.2
CCCCC/C=C\C/C=C\C/C=C\C/C=C\CCCC(=O)OC[C@H](COP(=O)(O)OCCN)OC(=O)CCCCCCC/C=C\CCCCCC [PE 20:4_16:1] (ion (formula + adduct): [C41H72NO8P+H] 1+)	272.4	272.6	–
CCCCC/C=C\C/C=C\C/C=C\CCCCCCC(=O)O[C@H](COC(=O)CCCCCCCCCCCCCCCCCC)COP(=O)([O-])OCC[N+](C)(C)C [PC 19:0@_20:3] (ion (formula + adduct): [C47H88NO8P+H] 1+)	–	299.8	–
CCCCC/C=C\C/C=C\C/C=C\CCCCCCC(=O)O[C@H](COC(=O)CCCC/C=C\C/C=C\C/C=C\CCCCC)COP(=O)([O-])OCC[N+](C)(C)C [PC 18:3_20:3@] (ion (formula + adduct): [C46H80NO8P+H] 1+)	–	293.2	–
CCCCC/C=C\C/C=C\C/C=C\C/C=C\CCCC(=O)O[C@H](CO/C=C\CCCCCCCCCCCCCC)COP(=O)(O)OCCN [PE P- 16:0@_20:4] (ion (formula + adduct): [C41H74NO7P+H] 1+)	–	273.9	–
CCCCCCCCCCCCCCCCCC(=O)OC[C@@H](COC(=O)CCCCCCCCCCCCCCC)OC(=O)CCCCCCCCCCCCCCC [TG 16:0_16:0_18:0] (ion (formula + adduct): [C53H102O6+NH4] 1+)	319.9	320.7	320.25 ± 0.35
CCCCC/C=C\C/C=C\C/C=C\C/C=C\CCCC(=O)O[C@H](COC(=O)CCCCCCCCCCCCCCCCCC)COP(=O)([O-])OCC[N+](C)(C)C [PC 19:0@_20:4] (ion (formula + adduct): [C47H86NO8P+H] 1+)	–	298	–
CCCCC/C=C\C[C@H](O)/C=C/C=C\C/C=C\CCCC(=O)O[C@H](COC(=O)CCCCCCCCCCCCCCCCC)COP(=O)([O-])OCC[N+](C)(C)C [Oxidized PC 18:0@_20:4] (ion (formula + adduct): [C46H84NO9P+H] 1+)	–	–	297.15 ± 0.92
CCCCCCCC/C=C\CCCCCCCCCCCC(=O)OC[C@@H](COC(=O)CCCCCCCCCCCCCCC)OC(=O)CCCCCCCCCCCCCCCC [TG 16:0_17:0_22:1] (ion (formula + adduct): [C58H110O6+NH4] 1+)	332.9	–	–
CC/C=C\C/C=C\C/C=C\C/C=C\C/C=C\C/C=C\CCC(=O)O[C@H](CO/C=C\CCCCCCCCCCCCCCCC)COP(=O)(O)OCCN [PE P- 18:0@_22:6] (ion (formula + adduct): [C45H78NO7P+H] 1+)	–	285	284.2
CCCCCCCCCCCCCCCC(=O)O[C@H](COC(=O)CCCCCCCCCCCCCC)COP(=O)([O-])OCC[N+](C)(C)C [PC 15:0_16:0] (ion (formula + adduct): [C39H78NO8P+H] 1+)	282.1	–	–

SMILES	TIMS collisional cross section (sample type: HeLa) [Å²]	TIMS collisional cross section (sample type: Liver) [Å²]	TIMS collisional cross section (sample type: plasma) [Å²]
CCCCC/C=C\C/C=C\C/C=C\C/C=C\C/C=C\CCC(=O)O[C@H](COC(=O)CCCCCCCCCCCCCCCCC)COP(=O)([O-])OCC[N+](C)(C)C [PC 18:0_22:5] (ion (formula + adduct): [C48H86NO8P+H] 1+)	–	299.3	301
CCCCCCCC/C=C\CCCCCCCC(=O)O[C@H](COC(=O)CCCCCCCCCCCCCCC)COC(=O)CCCCCCCCCCCCCCCCCCCCC [TG 16:0_18:1_22:0] (ion (formula + adduct): [C59H112O6+NH4] 1+)	335.9	336.3	–
CCCCCC/C=C\CCCCCCCC(=O)OC[C@@H](COC(=O)CCCCCCCCCCC)OC(=O)CCCCCCCCCCC [TG 12:0_12:0_16:1] (ion (formula + adduct): [C43H80O6+NH4] 1+)	–	284.2	284.1
CCCCCCCC/C=C\CCCCCCCC(=O)O[C@@H](CO)COC(=O)CCCCCCC/C=C\CCCCCCCCC [DG 19:1_18:1_0:0] (ion (formula + adduct): [C40H74O5+NH4] 1+)	268.3	–	–
CCCCC/C=C\C/C=C\CCCCCCCC(=O)O[C@@H](CO)COC(=O)CCCCCCCCCCCCCCCC [DG 17:0_18:2_0:0] (ion (formula + adduct): [C38H70O5+NH4] 1+)	–	262.8	–
CCCC/C=C\CCCCCCCC(=O)OC[C@H](COC(=O)CCCCCCC/C=C\C/C=C\CCCCC)OC(=O)CCCCCCC/C=C\CCCC [TG 14:1_14:1_18:2] (ion (formula + adduct): [C49H86O6+NH4] 1+)	–	296.3	–
CCCCCCCCCCCCCCCCC(=O)OC[C@@H](COC(=O)CCCCCCCCCCCCCCC)OC(=O)CCCCCCCCCCCCCCC [TG 16:0_16:0_17:0] (ion (formula + adduct): [C52H100O6+NH4] 1+)	317.5	317.6	317.6
CCCCC/C=C\C/C=C\CCCCCCCCCC(=O)OC[C@@H](COC(=O)CCCCCCC/C=C\CCCCCC)OC(=O)CCCCCCC/C=C\CCCCCCCC [TG 16:1_18:1_20:2] (ion (formula + adduct): [C57H102O6+NH4] 1+)	–	324.7	–
CCCCC/C=C\C/C=C\C/C=C\C/C=C\CCCCCC(=O)O[C@H](COC(=O)CCCCCCC/C=C\CCCCC)COP(=O)([O-])OCC[N+](C)(C)C [PC 15:1_22:4] (ion (formula + adduct): [C45H80NO8P+H] 1+)	290.2	–	–
CCCCC/C=C\C/C=C\CCCCCCCC(=O)OC[C@@H](COC(=O)CCCCCCCCCCCCCC)OC(=O)CCCCCCCCCCCCCCC [TG 15:0_16:0_18:2] (ion (formula + adduct): [C52H96O6+NH4] 1+)	–	312.6	–
CCCC/C=C\CCCCCCCC(=O)OC[C@H](COC(=O)CCCCCCC/C=C\CCCCCC)OC(=O)CCCCCCC/C=C\CCCCCC [TG 14:1_16:1_16:1] (ion (formula + adduct): [C49H88O6+NH4] 1+)	301.5	301.9	–
CCCCCCCC/C=C\CCCCCCCC(=O)OC[C@H](COP(=O)(O)OCCN(C)C)OC(=O)CCCCCCC/C=C\CCCCCCCC [PE 18:1_18:1] (ion (formula + adduct): [C43H82NO8P+Na] 1+)	–	290.8	–
CCCCCCCCCCCCCCCC(=O)O[C@H](CO)COP(=O)(O)OCCN [LPE 16:0] (ion (formula + adduct): [C21H44NO7P+H] 1+)	–	214.5	–
CCCCC/C=C\C/C=C\CCCCCCCC(=O)OC[C@H](COP(=O)(O)OCCN)OC(=O)CCCCCCC/C=C\C/C=C\CCCCC [PE 18:2_18:2] (ion (formula + adduct): [C41H74NO8P+H] 1+)	–	273.1	–
CC/C=C\C/C=C\C/C=C\C/C=C\C/C=C\C/C=C\CCC(=O)O[C@H](COC(=O)CCCCCCCCCCCCCCC)COP(=O)(O)OCCN [PE 16:0_22:6@] (ion (formula + adduct): [C43H74NO8P+H] 1+)	–	280.9	–
CCCC/C=C\CCCCCCCC(=O)O[C@@H](COC(=O)CCCCCCC/C=C\C/C=C\CCCCC)COC(=O)CCCCCCCCCCC [TG 12:0_14:1_18:2] (ion (formula + adduct): [C47H84O6+NH4] 1+)	–	–	293.8
